Measured values from patent US8536204B2, “Amides and thioamides as pesticides” (Bayer CropScience AG, priority 2009, dated 2013).
Read-outs that look alike come from different tables or passages of the source.

Key:
[1] = Determination of the logP values (formic acid method) by HPLC; type: physicochemical
Procedure: 1) Description of Method for Determining the LogP Values (Formic Acid Method)
The logP values reported in the table were determined according to EEC-Directive 79/831 Annex V.A8 by HPLC (High Performance Liquid Chromatography) on a reversed-phase column (C 18). Temperature: 55° C.
Eluents for the determination in the acidic range (pH 3.4):
Eluent A: acetonitrile+1 ml of formic acid/litre. Eluent B: water+0.9 ml of formic acid/litre.
Gradient: from 10% eluent A/90% eluent B to 95% eluent A/5% eluent B in 4.25 min.
The calibration was effected with unbranched alkan-2-ones (with 3 to 16 carbon atoms), whose logP values are known (determination of the logP values on the basis of the retention times by linear interpolation between two successive alkanones). The lambda-max values were determined with reference to the UV spectra from 200 nm to 400 nm in the maxima of the chromatographic signals.

[2] = tested on: green peach aphid (Myzus persicae); assay: Myzus test (spray treatment); type: in vivo; details: 144 h, read-out: efficacy in % (100% means that all aphids have been killed); for pest or weed control at 50 g/ha: application rate 50 g/ha
Procedure: Myzus Test (Spray Treatment)
Solvent: • 78 parts by weight of acetone • 1.5 parts by weight of dimethylformamide
Emulsifier: 0.5 part by weight of alkylaryl polyglycol ether
To produce an appropriate active ingredient formulation, 1 part by weight of active ingredient is mixed with the amounts of solvent and emulsifier specified and the concentrate is diluted to the desired concentration with emulsifier-containing water.
Chinese cabbage leaf slices (Brassica pekinensis) infested by all stages of the green peach aphid (Myzus persicae) are sprayed with an active ingredient formulation of the desired concentration.
After 6 days, the efficacy in % is determined. 100% means that all aphids have been killed; 0% means that no aphids have been killed.

[3] = reversed-phase HPLC column (C 18), pH 3.4, HPLC on reversed-phase column (C 18), acidic range (pH 3.4), 55° C., Table 1, read-out: logP (HCOOH)
[4] = application rate 500 g/ha, spray on Chinese cabbage leaf slices, after 6 days
[5] = reversed-phase HPLC column (C 18), pH 3.4, formic acid method, pH 3.4, given in the preparation examples, read-out: log P (HCOOH)
[6] = spray on Chinese cabbage leaf slices, after 6 days
[7] = HPLC on reversed-phase column (C 18), acidic range (pH 3.4), 55° C., Table 1, read-out: logP (HCOOH)

Row | chromatographic logP [1, 3] | Compound | pest or weed control at 500 g/ha [2, 4] [%] | further results
1 | 1.43 | Cc1nn(-c2cccnc2)cc1C(=O)NCc1nc(C2CC2)no1 [Example 48] | 100 | –
2 | 0.79 | Cc1nn(-c2cccnc2)cc1C(=O)NCC#N [Example 44] | – | –
3 | 1.69 | O=C(NCC(F)(F)C(F)(F)F)c1cnn(-c2cccnc2)c1 [Example 52] | – | pest or weed control at 50 g/ha [2, 6]: 90%
4 | 0.91 | Cc1nn(-c2cccnc2)cc1C(=O)NCC1COCCO1 (centres unmarked) [Example 34] | 100 | –
5 | 1.14 | COC(=O)C(C)NC(=O)c1cn(-c2cccnc2)nc1C (centres unmarked) [Example 43] | 100 | –
6 | 1.32 | Cc1nn(-c2cccnc2)cc1C(=O)NCC1CC1 [Example 36] | 100 | –
7 | 1.09 | CN(C(=O)c1cnn(-c2cccnc2)c1)C(C)(C)C#N [Example 42] | 100 | –
8 | 1.37 | COc1cc(OC)nc(CNC(=O)c2cnn(-c3cccnc3)c2)n1 [Example 51] | – | –
9 | 1.12 | Cc1nn(-c2cccnc2)cc1C(=O)NCC(F)F [Example 46] | 100 | –
10 | 0.91 | CCNC(=O)c1cn(-c2cccnc2)nc1C [Example 39] | 100 | –
11 | 1.9 | Cc1nn(-c2cccnc2)cc1C(=O)NCC1Cc2ccccc2O1 (centres unmarked) [Example 56] | – | –
12 | 1.57 | Cc1nn(-c2cccnc2)cc1C(=O)N(C)CC(F)(F)F [Example 37] | 100 | –
13 | 0.76 | N#CC1(NC(=O)c2cnn(-c3cccnc3)c2)CC1 [Example 53] | – | pest or weed control at 50 g/ha [2, 6]: 90%
14 | 0.52 | N#CCNC(=O)c1cnn(-c2cccnc2)c1 [Example 40] | 100 | –
15 | 0.91 | COC(=O)C(C)NC(=O)c1cnn(-c2cccnc2)c1 (centres unmarked) [Example 55] | – | pest or weed control at 50 g/ha [2, 6]: 90%
16 | 1.63 | Cc1nn(-c2cccnc2)cc1C(=O)NC1(C(F)(F)F)CC1 [Example 47] | 100 | –
17 | 0.88 | Cc1nn(-c2cccnc2)cc1C(=O)NCC1OCCO1 [Example 33] | 100 | –
18 | 1.04 | COC(CNC(=O)c1cn(-c2cccnc2)nc1C)OC [Example 35] | 100 | –
19 | 1.4 | CC(C)C(C#N)NC(=O)c1cnn(-c2cccnc2)c1 (centres unmarked) [Example 41] | 100 | –
20 | 1.2 | Cc1cc(C)nc(CNC(=O)c2cn(-c3cccnc3)nc2C)n1 [Example 49] | 100 | –
21 | 2.56 | Cc1nn(-c2cccnc2)cc1C(=O)NCCOc1cc(Cl)ccc1Cl [Example 57] | – | –
22 | 0.84 | COC(=O)C1(NC(=O)c2cnn(-c3cccnc3)c2)CC1 [Example 45] | 100 | –
23 | 0.87 | Cc1nn(-c2cccnc2)cc1C(=O)NCCF [Example 38] | 100 | –

Continued, compound first:

Row | Compound | chromatographic logP [1, 3] | pest or weed control at 500 g/ha [2, 4] [%] | further results
24 | CON(C)C(=O)c1cnn(-c2cccnc2)c1 [Example 11] | 0.97 | – | –
25 | FC(F)(F)CNC(=S)c1cnn(-c2cccnc2)c1 [Example 12, 1-(Pyridin-3-yl)-N-(2,2,2-trifluoroethyl)-1H-pyrazole-4-carbothioamide] | 1.97 | 80 | chromatographic logP [1, 5]: 1.97
26 | N#Cc1cnn(-c2cccnc2)c1 [1-(Pyridin-3-yl)-1H-pyrazole-4-carbonitrile] | – | – | chromatographic logP [1, 5]: 0.98
27 | Cc1nn(-c2cccnc2)cc1C(=O)NC(C)C1CC1 (centres unmarked) [Example 26] | 1.58 | 100 | logP (HCOOH) ([1]; HPLC on reversed-phase column (C 18), acidic range (pH 3.4), 55° C., Table 1): 1.45
28 | O=C(NCC1CC1)c1cnn(-c2cccnc2)c1 [Example 25] | 1.16 | 100 | –
29 | O=C(NCc1nc(C2CC2)no1)c1cnn(-c2cccnc2)c1 [Example 20] | 1.21 | 100 | –
30 | O=C(NCC1COCCO1)c1cnn(-c2cccnc2)c1 (centres unmarked) [Example 23] | 0.7 | 100 | –
31 | CN(CC(F)(F)F)C(=O)c1cnn(-c2cccnc2)c1 [Example 8] | 1.43 | 100 | –
32 | O=C(NCc1ccccn1)c1cnn(-c2cccnc2)c1 [Example 16] | 0.31 | 100 | –
33 | Cc1nn(-c2cccnc2)cc1C(=O)NCC(F)(F)F [Example 2, 3-Methyl-1-(pyridin-3-yl)-N-(2,2,2-trifluoroethyl)-1H-pyrazole-4-carboxamide] | 1.45 | – | pest or weed control at 500 g/ha ([2]; in Brassica rapa): 100%; chromatographic logP [1, 5]: 1.45
34 | O=C(NCc1ncccn1)c1cnn(-c2cccnc2)c1 [Example 5] | 0.51 | 100 | –
35 | Cc1nn(-c2cccnc2)cc1C(=O)N(C)C [Example 10] | 0.7 | 100 | –
36 | Cc1nn(-c2cccnc2)cc1C(=O)NCCC(F)(F)F [Example 32] | 1.52 | 100 | –
37 | Cc1nn(-c2cccnc2)cc1C(=O)NCc1ncccn1 [Example 7] | 0.78 | 100 | –
38 | CN(C)C(=O)c1cnn(-c2cccnc2)c1 [Example 4] | 0.6 | – | pest or weed control at 50 g/ha [2, 6]: 90%
39 | O=C(NCC(F)F)c1cnn(-c2cccnc2)c1 [Example 6] | 0.87 | 100 | –
40 | Cc1nn(-c2cccnc2)cc1C(=O)N(C)C1CC1 [Example 29] | 1.17 | 100 | –
41 | Cc1nn(-c2cccnc2)cc1C(=O)NCC(F)(F)C(F)(F)F [Example 31] | 1.95 | 100 | –

Row | Compound | chromatographic logP [1, 3] | pest or weed control at 500 g/ha [2, 4] [%] | further results
42 | COC(=O)NNC(=O)c1cn(-c2cccnc2)nc1C [Example 50] | – | 100 | chromatographic logP [1, 7]: 0.52
43 | CC(F)(F)CNC(=O)c1cnn(-c2cccnc2)c1 [Example 15] | 1.11 | 100 | –
44 | O=C(NCC1Cc2ccccc2O1)c1cnn(-c2cccnc2)c1 (centres unmarked) [Example 17] | 1.68 | – | –
45 | Cc1nn(-c2cccnc2)cc1C(=O)O [3-Methyl-1-(pyridin-3-yl)-1H-pyrazole-4-carboxylic acid] | – | – | chromatographic logP [1, 5]: 0.77
46 | Cc1nn(-c2cccnc2)cc1C(=O)NCC(C)(F)F [Example 27] | 1.35 | 100 | –
47 | O=C(NC1(C(F)(F)F)CC1)c1cnn(-c2cccnc2)c1 [Example 13] | 1.4 | 100 | –
48 | CC(NC(=O)c1cnn(-c2cccnc2)c1)C1CC1 (centres unmarked) [Example 14] | 1.38 | 100 | –
49 | Cc1nn(-c2cccnc2)cc1C(=O)NCc1ccccn1 [Example 28] | 0.52 | 100 | –
50 | O=C(NC1CC1)c1cnn(-c2cccnc2)c1 [Example 18] | 0.78 | 100 | –
51 | COC(=O)N(C)NC(=O)c1cn(-c2cccnc2)nc1C [Example 54] | – | 100 | chromatographic logP [1, 7]: 0.79
52 | COC(CNC(=O)c1cnn(-c2cccnc2)c1)OC [Example 24] | 0.83 | 100 | –
53 | O=C(O)c1cnn(-c2cccnc2)c1 [1-(Pyridin-3-yl)-1H-pyrazole-4-carboxylic acid] | – | – | chromatographic logP [1, 5]: 0.5
54 | O=C(NCC1OCCO1)c1cnn(-c2cccnc2)c1 [Example 22] | 0.66 | 100 | –
55 | CN(C(=O)c1cnn(-c2cccnc2)c1)C1CC1 [Example 19] | 1.09 | 100 | –
56 | O=C(NCCC(F)(F)F)c1cnn(-c2cccnc2)c1 [Example 21] | 1.31 | 100 | –
57 | CCNC(=O)c1cnn(-c2cccnc2)c1 [Example 1, N-Ethyl-1-(pyridin-3-yl)-1H-pyrazole-4-carboxamide] | 0.64 | – | pest or weed control at 500 g/ha ([2]; in Brassica rapa): 100%; chromatographic logP [1, 5]: 0.64
58 | CCOC(=O)c1cn(-c2cccnc2)nc1C [Ethyl 3-methyl-1-(pyridin-3-yl)-1H-pyrazole-4-carboxylate] | – | – | chromatographic logP [1, 5]: 1.83
